# Data from PMC8878452, “A Tale of Toxin Promiscuity: The Versatile Pharmacological Effects of Hcr 1b-2 Sea Anemone Peptide on Voltage-Gated Ion Channels” (Marine Drugs, 2022).
# Bridges are numbered along the chain shown (N, C = ends). Where no end group is shown, it is not given here.
# How the values were obtained:
# hKv10.1 (hEAG1) = experiment: TEVC, Kv10.1 in Xenopus oocytes; assay type: cell-based, human; settings: 1 µM, ND96 pH 7.4, 18–22 °C, n ≥ 3
# From the text: For the expression of Kv channels (rKv1.1, rKv1.2, rKv1.3, rKv1.4, rK1.5, rKv1.6, hKv2.1, hKv3.1, rKv4.2, hKv7.1, hKv7.2/7.3, hKv7.4, KQT1 (from the roundworm Caenorhabditis elegans), hKv10.1 (hEAG1), hKv11.1 (hERG1), and Shaker, from Drosophila melanogaster), Nav channels (rNav1.1, rNav1.2, rNav1.3, rNav1.4, hNav1.5, mNav1.6, hNav1.7, hNav1.8, and BgNav (from the cockroach Blattella germanica), as well as the hβ1 and rβ1 subunits, and Cav channels (rCav3.1, hCav3.2, and rCav3.3) in Xenopus oocytes, the linearized plasmids were transcribed using the T7 or SP6 mMESSAGEmMACHINE transcription kit (Ambion, Austin, TX, USA). Mature female animals were purchased from Nasco (Fort Atkinson, WI, USA) and were housed in the Aquatic Facility (KU Leuven) in compliance with the regulations of the European Union (EU) concerning the welfare of laboratory animals as declared in Directive 2010/63/EU. The use of X. laevis oocytes was approved by the Animal Ethics Committee of the KU Leuven, with the license number P186/2019. […]
# Whole-cell currents of oocytes were recorded 1 to 3 days after RNA injection. […] The current–voltage relationships were determined by 50 ms step depolarizations between −90 and +65 mV using 5 or 10 mV increments. All electrophysiological data were analyzed following the procedures described by Peigneur et al., 2012 [20].
# All values were expressed as means ± SEM. […]
# rNav1.2 = experiment: TEVC, Nav1.2 in Xenopus oocytes; assay type: cell-based, rat
# From the text: For the expression of Kv channels (rKv1.1, rKv1.2, rKv1.3, rKv1.4, rK1.5, rKv1.6, hKv2.1, hKv3.1, rKv4.2, hKv7.1, hKv7.2/7.3, hKv7.4, KQT1 (from the roundworm Caenorhabditis elegans), hKv10.1 (hEAG1), hKv11.1 (hERG1), and Shaker, from Drosophila melanogaster), Nav channels (rNav1.1, rNav1.2, rNav1.3, rNav1.4, hNav1.5, mNav1.6, hNav1.7, hNav1.8, and BgNav (from the cockroach Blattella germanica), as well as the hβ1 and rβ1 subunits, and Cav channels (rCav3.1, hCav3.2, and rCav3.3) in Xenopus oocytes, the linearized plasmids were transcribed using the T7 or SP6 mMESSAGEmMACHINE transcription kit (Ambion, Austin, TX, USA). Mature female animals were purchased from Nasco (Fort Atkinson, WI, USA) and were housed in the Aquatic Facility (KU Leuven) in compliance with the regulations of the European Union (EU) concerning the welfare of laboratory animals as declared in Directive 2010/63/EU. The use of X. laevis oocytes was approved by the Animal Ethics Committee of the KU Leuven, with the license number P186/2019.
# Stage V–VI oocytes were collected from anesthetized female X. laevis frog as previously described, with the frogs anesthetized by placement in a 0.1% tricaine solution (amino benzoic acid ethyl ester; Merck, Kenilworth, NJ, USA). Oocyte microinjection was performed using a microinjector (Drummond Scientifc®, Broomall, PA, USA), with a programmed cRNA injection volume of 4–50 nL, depending on channel subtype. The oocytes were incubated in ND96 solution (96 mM NaCl; 2 mM KCl; 1.8 mM CaCl2; 2 mM MgCl2, and 5 mM HEPES, pH 7.4), supplemented with 50 mg/L of gentamicin sulfate.
# Electrophysiological measurements were performed at room temperature (18–22 °C) using the two-electrode voltage-clamp (TEVC) technique. Data were obtained using a GeneClamp 500 amplifier (Axon Instruments®, Burlingame, CA, USA) and Clampex9 software (Axon Instruments®, USA) was responsible for data acquisition and storage. Glass micropipettes were produced using glass capillaries (borosilicate WPI 1B120-6) and drawn in a WPI (World Precision Instruments®, Sarasota, FL, USA) manual stretcher. The bath and perfusion solutions were either the previously described ND96 (Nav and Kv channels) or calcium-free ND96 supplemented with 10 mM BaCl2 (Cav channels).
# Whole-cell currents of oocytes were recorded 1 to 3 days after RNA injection. The current and voltage electrodes were filled with 3 M KCl, and their resistance was adjusted from 1.0 to 2.5 MΩ. Currents were sampled at 20 kHz (Nav channels) and 10 kHz (Kv and Cav channels) and filtered using a four-pole Bessel low-pass Bessel filter at 1 kHz for sodium and […] for potassium and calcium, except for the hERG ion channel in which the currents were filtered at 1 kHz. Leak subtraction was performed using a P/4 protocol. Kv1.x currents were evoked by 500 ms depolarizations to 0 mV, followed by a 500 ms pulse to −50 mV from a holding potential of −90 mV. Kv2.1, Kv3.1, Kv4.2, Kv7.x, and KQT1 currents were elicited by 700 ms pulses to +20 mV from a holding potential of −90 mV. Current traces of the hERG1 channel were elicited by applying a +40 mV prepulse for 2 s, followed by a step of −120 mV for 2 s. Current traces of hEAG1 were elicited by a 2 s depolarization to 0 mV from a holding potential of −90 mV. Sodium current traces were evoked by a 100 ms depolarization to 0 mV. For Cav channels, current traces were elicited by 700 ms depolarizations to −20 mV from a holding potential of −90 mV. The current–voltage relationships were determined by 50 ms step depolarizations between −90 and +65 mV using 5 or 10 mV increments. All electrophysiological data were analyzed following the procedures described by Peigneur et al., 2012 [20].
# All values were expressed as means ± SEM. Differences in ionic currents between the control and toxin conditions were compared by a one-way ANOVA, followed by Dunnett’s multiple comparisons test. Differences were considered statistically significant when […].
sequence,measurement,setting,value
"GTPCKCHGYIGVYWFMLAGCPNGYGYNLSCPYFLGICCVKK (disulfide 4-37, 6-30, 20-38 (inferred)) [Hcr 1b-2]","effect on potassium current, Kv10.1",hKv10.1 (hEAG1),not active
same,"effect on activation or inactivation, Nav1.2",rNav1.2; 1 µM,no significant effect
same,"Shift in Vhalf activation, Nav1.2",rNav1.2; 1 µM vs control (ND96),3.7 mV
same,"Shift in Vhalf inactivation, Nav1.2",rNav1.2; 1 µM vs control (ND96),−1.1 mV
same,"reduction of peak amplitude (INa), Nav1.2","rNav1.2; 1 µM, 100 ms depolarization to 0 mV, mean ± SEM, n ≥ 3",52.8 ± 7.9%
same,"Vhalf activation, Nav1.2","rNav1.2; 1 µM, control (ND96) −19.2 ± 0.1, mean ± SEM, n ≥ 3",−15.5 ± 0.2 mV
same,"Vhalf inactivation, Nav1.2","rNav1.2; 1 µM, control (ND96) −33.6 ± 0.4, mean ± SEM, n ≥ 3",−34.7 ± 0.6 mV
